IC50 and inhibition data for 10 compounds are collected here from US8729095B2, “3-(biaryloxy)propionic acid derivatives for prevention and/or treatment of thromboembolic diseases” (Daiichi Sankyo Company, Limited, priority 2009, dated 2014).

The structures appear in SMILES notation.

Assay [1] relates to platelet aggregation induced by ADP in human platelet-rich plasma (PRP). Description: Human platelet aggregation inhibitory activity (ADP-induced, platelet-rich plasma). The format is cell-based. As to conditions: 8 min, ADP final concentration 20 μM, maximum aggregation rate, measured for 8 minutes. In a few lines: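 Human platelet-rich plasma from citrated venous blood of a healthy donor was preincubated 2 min at 37 °C with compound in DMSO. Aggregation was induced with ADP (20 μM final) and followed 8 min by light transmittance, with platelet-poor plasma as 100%. IC50s derived from maximum aggregation rates.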

Assay [2] deals with platelet aggregation induced by ADP in rat platelet-rich plasma (PRP). In words: Platelet aggregation inhibitory activity during oral administration in a rat (ex vivo, ADP-induced). The settings on record: male Wistar rats, 1 mg/10 ml/kg orally, blood collected 4 hours after administration, ADP final concentration 3 μM, vs. control PRP (solvent only), read-out: Inhibition Rates (%). The protocol:
1 mg/10 ml/kg of the test compound was orally administered by gavage to male rats (Slc: Wistar, age 8 to 9 weeks) that had been fasted overnight. 4 hours after administration, a syringe containing 1/10 volume of a 3.13% sodium citrate solution was used to collect blood from the abdominal aorta of a rat under anesthesia. From the collected blood, platelet-rich plasma (PRP) and platelet-poor plasma (PPP) were prepared according to the method described in the method for measuring human platelet aggregation inhibitory activity. PRP was left at rest at 16° C. for 30 minutes, and subsequently used for measurement.
200 μL of the separately collected PRP was dispensed into a cuvette for the aggregation test, followed by incubation at 37° C. for 2 minutes, and subsequently 2 μL of 0.3 mM ADP was added (final concentration 3 μM) to induce platelet aggregation.
Platelet aggregation was measured for 8 minutes using an aggregometer (MCM HEMA TRACER 313M; MC MEDICAL, INC.). With the light transmittance rate of PPP being set as an aggregation value of 100%, the maximum aggregation rate of PRP was determined, and compared with the maximum aggregation rate of control PRP (rat administered only with a solvent) to calculate inhibition rates.

Usually IC50 stands for the concentration that inhibits the measured activity by half. Low readings indicate higher potency, high ones lower potency. Broadly, the inhibition is the percentage by which the read-out fell short of the control. Regarding `C[C@@H](COc1ccccc1-c1ccc(C(=O)N2CCC(N3C(=O)C(C)(C)Oc4ncc(Cl)cc43)CC2)c(F)c1)C(=O)O` [Example 25, (2S)-3-[(4′-{[4-(7-Chloro-3,3-dimethyl-2-oxo-2,3-dihydro-1H-pyrido[2,3-b][1,4]oxazin-1-yl)piperidin-1-yl]carbonyl}-3′-fluorobiphenyl-2-yl)oxy]-2-methylpropanoic acid], the IC50 in assay [1] came to 5.1 µM. Also, the inhibition at 1 mg/kg in assay [2] is 46%.
`C[C@@H]1Oc2ncc(Cl)cc2N(C2CCN(C(=O)c3ccc(-c4ccccc4OC[C@H](C)C(=O)O)cc3F)CC2)C1=O` [Example 24, (2S)-3-{[4′-({4-[(3S)-7-Chloro-3-methyl-2-oxo-2,3-dihydro-1H-pyrido[2,3-b][1,4]oxazin-1-yl]piperidin-1-yl}carbonyl)-3′-fluorobiphenyl-2-yl]oxy}-2-methylpropanoic acid] gave an IC50 in assay [1] of 3.1 µM. Further, in assay [2], the inhibition at 1 mg/kg was determined as 44%.
On the same counts, the results for `C[C@H](CC(=O)O)Oc1ccccc1-c1ccc(C(=O)N2CCC(N3C(=O)C(C)(C)Oc4ncc(Cl)cc43)CC2)c(F)c1` [Example 6, (3R)-3-[(4′-{[4-(7-Chloro-3,3-dimethyl-2-oxo-2,3-dihydro-1H-pyrido[2,3-b][1,4]oxazin-1-yl)piperidin-1-yl]carbonyl}-3′-fluorobiphenyl-2-yl)oxy]butanoic acid] are 2.4 µM and 54%.
On the same counts, the results for `CCc1cnc2c(c1)N(C1CCN(C(=O)c3ccc(-c4ccccc4O[C@H](C)CC(=O)O)cc3F)CC1)C(=O)C(C)(C)O2` [Example 53, (3R)-3-[(4′-{[4-(7-Ethyl-3,3-dimethyl-2-oxo-2,3-dihydro-1H-pyrido[2,3-b][1,4]oxazin-1-yl)piperidin-1-yl]carbonyl}-3′-fluorobiphenyl-2-yl)oxy]butanoic acid] are 6.4 µM and 44%.
Compound `C[C@H](CC(=O)O)Oc1ccccc1-c1ccc(C(=O)N2CCC(N3C(=O)C(C)(C)Cc4ncc(Cl)cc43)CC2)c(F)c1` [Example 5, (3R)-3-[(4′-{[4-(7-Chloro-3,3-dimethyl-2-oxo-3,4-dihydro-1,5-naphthyridin-1(2H)-yl)piperidin-1-yl]carbonyl}-3′-fluorobiphenyl-2-yl)oxy]butanoic acid] yielded an IC50 in assay [1] of 3.4 µM. In assay [2], the inhibition at 1 mg/kg was found to be 70%.
Turning to `C[C@H](CC(=O)O)Oc1ccccc1-c1cc(F)c(C(=O)N2CCC(N3C(=O)C(C)(C)Oc4ncc(Cl)cc43)CC2)cc1F` [Example 34, (3R)-3-[(4′-{[4-(7-Chloro-3,3-dimethyl-2-oxo-2,3-dihydro-1H-pyrido[2,3-b][1,4]oxazin-1-yl)piperidin-1-yl]carbonyl}-2′,5′-difluorobiphenyl-2-yl)oxy]butanoic acid], the 50% inhibitory concentration (IC50) in assay [1] turned out to be 2.3 µM. Moreover, in assay [2], the inhibition at 1 mg/kg was determined as 55%.
Regarding `Cc1cc(-c2cc(F)ccc2O[C@H](C)CC(=O)O)ccc1C(=O)N1CCC(N2C(=O)C(C)(C)Oc3ncc(Cl)cc32)CC1` [Example 17, (3R)-3-[(4′-{[4-(7-Chloro-3,3-dimethyl-2-oxo-2,3-dihydro-1H-pyrido[2,3-b][1,4]oxazin-1-yl)piperidin-1-yl]carbonyl}-5-fluoro-3′-methylbiphenyl-2-yl)oxy]butanoic acid], 9.8 µM corresponded to half-maximal inhibition in assay [1] (IC50). Besides, in assay [2], the inhibition at 1 mg/kg turned out to be 52%.
The compound `C[C@H](CC(=O)O)Oc1ccccc1-c1cnc(C(=O)N2CCC(N3C(=O)C(C)(C)Cc4ncc(Cl)cc43)CC2)c(F)c1` [Example 38, (3R)-3-[2-(6-{[4-(7-Chloro-3,3-dimethyl-2-oxo-3,4-dihydro-1,5-naphthyridin-1(2H)-yl)piperidin-1-yl]carbonyl}-5-fluoropyridin-3-yl)phenoxy]butanoic acid] returned an IC50 in assay [1] of 2 µM. In assay [2], the inhibition at 1 mg/kg was determined as 52%.
In turn, `C[C@H](CC(=O)O)Oc1cc(F)ccc1-c1ccc(C(=O)N2CCC(N3C(=O)C(C)(C)Oc4ncc(Cl)cc43)CC2)c(F)c1` [Example 35, (3R)-3-[(4′-{[4-(7-Chloro-3,3-dimethyl-2-oxo-2,3-dihydro-1H-pyrido[2,3-b][1,4]oxazin-1-yl)piperidin-1-yl]carbonyl}-3′,4-difluorobiphenyl-2-yl)oxy]butanoic acid] came in with an IC50 in assay [1] of 3.6 µM. In addition, the inhibition at 1 mg/kg in assay [2] came out at 96%.
In the case of `C[C@@H]1Oc2ncc(Cl)cc2N(C2CCN(C(=O)c3ccc(-c4cc(F)ccc4OC[C@H](C)C(=O)O)cc3F)CC2)C1=O` [Example 26, (2S)-3-{[4′-({4-[(3S)-7-Chloro-3-methyl-2-oxo-2,3-dihydro-1H-pyrido[2,3-b][1,4]oxazin-1-yl]piperidin-1-yl}carbonyl)-3′,5-difluorobiphenyl-2-yl]oxy}-2-methylpropanoic acid], it took 7.3 µM to reach half-maximal inhibition in assay [1] (IC50). The inhibition at 1 mg/kg in assay [2] was found to be 55%.
